Results published in patent publication US8168177B2, “Method of regulating mammalian target-of-rapamycin activity by interaction between phospholipase D and Rheb” (Postech Academy-Industry Foundation, priority 2006, dated 2012).

What was measured:
[1] = test system: interaction between mTOR and Rheb / mTOR signaling; assay: IP analysis of HA-RhebQ64L transfected cells treated with 1-butanol, t-butanol, PA, rapamycin; format: cell-based
Description: (§1) After harvesting COS7 cells, total extracts were prepared by brief sonication in ice-cold lysis buffer (40 mM HEPES pH7.5, 120 mM NaCl, 1 mM EDTA, 10 mM pyrophosphate, 10 mM glycerophosphate, 50 mM NaF, 1.5 mM Na3VO4, 0.5% CHAPS, 1 mM PMSF, protease inhibitor cocktails). Clarified extracts were mixed with 2 μg of the respective antibodies. Then protein A-Sepharose beads were added to isolate the antibody complex. After four washings with lysis buffer, the final immunoprecipitates were washed once with wash buffer (50 mM HEPES pH7.5, 150 mM NaCl), and then subjected to SDS-PAGE using Hyperfilm (Amersham Pharmacia Biotech), nitrocellulose membranes (Watmann), Power supply (Amersham Pharmacia Biotech), Electrophoretic Transfer unit (Hoefer Scientific Instruments), and ECL™ (Amersham Pharmacia Biotech).
This example examined the speculation that PA could increase Rheb/mTOR binding and activate mTOR through PA-dependent conformational change of mTOR.

S6K1 phosphorylation = assay: Leucine-induced S6K1 phosphorylation (Western blot); format: cell-based
Description: COS7 cells (ATCC, CRL-1651) were maintained in a 5% CO2 humidified atmosphere at 37° C. and fed DMEM supplemented with 10% bovine calf serum (HyClone). HEK293 cells (ATCC: CRL-1573) were fed DMEM supplemented with 10% fetal bovine serum (HyClone). Cells grown on tissue culture dishes were transiently transfected using LipofectAMINE, as described in “Park, J. B. et al. Cardiac phospholipase D2 localizes to sarcolemmal membranes and is inhibited by alpha-actinin in an ADP-ribosylation factor-reversible manner. J. Biol. Chem. 275, 21295-21301 (2000)” and “Lee, S. et al. Actin directly interacts with phospholipase D, inhibiting its activity. J. Biol. Chem. 276, 28252-28260 (2001)”, which are hereby incorporated by reference. Cells were allowed to express the recombinant proteins for 24 hr after transfection and then deprived of serum for additional 24 hr. The cells were then subjected to leucine deprivation, co-immunoprecipitation, or GST pull-down analysis. Leucine deprivation was performed as previously described 10 with minor modification. Briefly, cells were deprived of serum first for 24 hrs and then subjected to leucine deprivation in leucine-free RPMI 1640 medium. […]

mTOR pathway = conditions: cited from earlier work
mTOR complex = molecular target: T1, mTOR complex (Homo sapiens, UniProt P42345); assay: In vitro binding of purified GST-Rheb to mTOR/raptor/PLD2 immunoprecipitate; conditions: PA 10 μM, GST-Rheb 40 nM, in the presence of GTPγS 100 μM (FIG. 13)
T1 construct: expressed in transfected cells; host or cells: The mTOR/raptor/PLD2 complex came from transfected mammalian cells; GST-Rheb was expressed in E. coli
Description: After incubation at 4° C. for 2 hr, the beads were washed and then subjected to SDS-PAGE. E. coli and COS7 cells were lysed with the lysis buffer used for the co-immunoprecipitation. Hexa-histidine (His6)-tagged PLD2 was purified from detergent extracts of baculovirus-infected Sf9 cells (Invitrogen) by chelating Sepharose affinity column chromatography, as previously described in Lee, S. et al. Actin directly interacts with phospholipase D, inhibiting its activity. J. Biol. Chem. 276, 28252-28260 (2001), which is hereby incorporated by reference. […] In vitro binding analysis was done in ice-cold lysis buffer (as used for the co-immunoprecipitation but including 10% glycerol).
HA-mTOR, myc-raptor, and PLD2 were transfected and resulting lysates were immunoprecipitated with anti-HA antibody.

[2] = test system: interaction between PLD2 and mTOR; assay: Co-IP of endogenous PLD2 with mTOR (anti-mTOR antibody); format: cell-based; conditions: rapamycin: mTOR inhibition; leucine: leucine-deprived COS7 and HEK293 cells (FIG. 17)
Description: as §1

PLD2 = molecular target: T2, PLD2 (Homo sapiens, UniProt O14939); assay: In vivo PLD assay (PBt formation) in PLD2wt transfected cells; format: cell-based; conditions: leucine-free vs leucine-added media, 0.4% 1-butanol (FIG. 16)
T2 construct: expressed in transfected cells
Description: In vivo PLD activity was assayed by measuring the formation of phosphatidyl-butanol as described in “Lee, S. et al. Actin directly interacts with phospholipase D, inhibiting its activity. J. Biol. Chem. 276, 28252-28260 (2001)” and “Ha, S. H., Kim, D. H., Kim, I. S., Kim, J. H., Lee, M. N., Lee, H. J., Kim, J. H., Jang, S. K., Suh, P. G., Ryu, S. H. PLD2 forms a functional complex with mTOR/raptor to transduce mitogenic signals. Cell. Signal. 18 (2006) 2283-2291”, which are hereby incorporated by reference.
In brief, cells were loaded with [^3H]myristic acid (2 μCi/ml) for 8 hr and then washed twice with DMEM. Labeled cells were incubated with 0.4% butanol for 10 min to measure basal PLD activity. Total lipids were extracted with 1.2 ml of methanol:1M NaCl:chloroform (1:1:1 by volume) and then separated by thin-layer chromatography on silica gel plates. The amount of [^3H]phosphatidyl-butanol formed was expressed as a percentage of total [^3H]lipid to account for cell labeling efficiency differences.
Until now, the function of PLD2 in nutrient signaling has not been proposed. To this end, the importance of PLD2 in nutrient signaling was tested. […] Based on the result, PLD2 activity in response to nutrient levels was checked. PLD2^wt was transfected and allowed to express for 24 hr.

Compound: CCCCO [1-butanol]
- interaction between mTOR and Rheb ([1]; 1-butanol 0.4%, HA-RhebQ64L cells serum deprived 24 hr (FIG. 12)): attenuated
- stimulatory effect of leucine on S6K1 (S6K1 phosphorylation; 1-butanol treatment): significantly reduced

Compound: CCCCCC(=O)OC[C@H](COP(=O)(O)O)OC(=O)CCCCC [PA, C-6 phosphatidic acid]
- Rheb activation of mTOR signaling, rescue from 1-butanol-treated cells ([1]; C-6 PA 100 uM (FIG. 12)): essentially required
- rescue of mTOR activity by PA (mTOR pathway; PLD1 expression lowered): could rescue
- activation of mTOR pathway by PA (mTOR pathway; PLD2 expression lowered): could no longer activate
- GST-Rheb binding to mTOR complex (mTOR complex): increased

Compound: CC(C)C[C@H](N)C(=O)O [leucine]
- interaction between PLD2 and mTOR [2]: increased
- PLD2 activity (PBt formation) (PLD2): reversibly regulated

Compound: PLD2 siRNA: 21-nucleotide siRNA duplex (SEQ ID NO: 9/10) corresponding to human PLD2 coding nucleotides 703-723 (chain 1 AAGAGGUGGCUGGUGGUGAAG; chain 2 CUUCACCACCAGCCACCUCUU; listed as RNA, chemistry not given here)
- effect of leucine on S6K1 phosphorylation (S6K1 phosphorylation; leucine deprivation 45 min, then leucine 15 min (0-100 μM FIG. 20; 100 μM FIG. 21)): completely downregulated
